Literature values as cited in patent publication US8822536B2, “Dietary supplements containing terpenoid acids of maslinic acid or oleanolic acid and process for enhancing muscle mass in mammals” (FHG Corporation d/b/a Integrity Nutraceuticals, priority 2009, dated 2014).

Assays:
juvenile dentex fish = settings: 80 mg kg-1
glycogen phosphorylase = biological target: T1, glycogen phosphorylase (Oryctolagus cuniculus, UniProt P00489)
T1 sequence (P00489 2-843 limits assumed): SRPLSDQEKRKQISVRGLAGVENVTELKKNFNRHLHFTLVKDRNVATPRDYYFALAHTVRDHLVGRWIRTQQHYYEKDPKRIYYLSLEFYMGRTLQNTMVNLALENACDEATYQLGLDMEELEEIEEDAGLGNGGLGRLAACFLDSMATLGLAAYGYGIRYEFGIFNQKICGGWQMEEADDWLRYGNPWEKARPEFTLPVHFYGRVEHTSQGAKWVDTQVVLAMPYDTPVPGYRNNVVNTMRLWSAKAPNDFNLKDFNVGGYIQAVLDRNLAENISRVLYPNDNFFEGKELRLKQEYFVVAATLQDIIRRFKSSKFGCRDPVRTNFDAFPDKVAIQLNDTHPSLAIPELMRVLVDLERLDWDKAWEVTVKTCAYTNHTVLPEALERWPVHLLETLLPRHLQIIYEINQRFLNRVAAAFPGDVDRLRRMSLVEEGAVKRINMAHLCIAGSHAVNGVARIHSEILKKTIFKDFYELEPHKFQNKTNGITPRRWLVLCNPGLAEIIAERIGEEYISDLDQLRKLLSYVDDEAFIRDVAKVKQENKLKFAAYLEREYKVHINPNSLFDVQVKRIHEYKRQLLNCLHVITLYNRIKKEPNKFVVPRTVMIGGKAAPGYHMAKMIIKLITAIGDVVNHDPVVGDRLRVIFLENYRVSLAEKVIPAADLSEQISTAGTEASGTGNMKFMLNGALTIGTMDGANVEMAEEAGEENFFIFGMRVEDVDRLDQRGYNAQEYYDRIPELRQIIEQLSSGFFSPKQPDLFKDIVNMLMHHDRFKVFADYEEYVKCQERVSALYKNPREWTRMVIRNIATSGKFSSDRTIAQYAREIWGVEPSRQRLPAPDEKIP

[1] = trout fed 250 mg kg-1, with respect to a control
[2] = trout fed 25 and 250 mg kg-1, white muscle

SMILES: CC1(C)CC[C@]2(C(=O)O)CC[C@]3(C)C(=CC[C@@H]4[C@@]5(C)C[C@@H](O)[C@H](O)C(C)(C)[C@@H]5CC[C@]43C)[C@@H]2C1 [maslinic acid, 2-α,3-β-dihydroxyolean-12-en-28-oic acid]
- growth of juvenile dentex fish (juvenile dentex fish): retard
- protein degradation rate, relative (KD) and absolute (AD) (trout; dietary maslinic acid, trout): stimulated
- protein synthesis (trout; dietary maslinic acid, trout): induces higher protein synthesis
- feed-efficiency ratio (FER) (trout; [1]): increased
- protein-efficiency ratio (PER) (trout; [1]): increased
- absolute protein-degradation rate (AD) (trout; [2]): only a minor increase
- fractional protein-degradation rate (KD) (trout; [2]): no significant changes
- protein-synthesis rate (KS and AS) (trout; [2]): increased
- protein-accumulation rates (KG and AG) (trout; trout fed with maslinic acid): high protein-accumulation rates
- glycogen phosphorylase inhibition (glycogen phosphorylase): new type of glycogen phosphorylase inhibitor
- accumulation of glycogen in liver (rainbow trout liver): high accumulation of glycogen
